Columns and labels:
Assay in all cases: Pre-emergent herbicidal activity (Table A)
Assay type in all cases: in vivo
Velvetleaf = conditions: Abutilon theophrasti, pre-emergence, Vele, 11.2 kg/ha, 10-14 days, read-out: herbicidal rating (% inhibition)
Procedure, shortened: (§1)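 Seeds or vegetative propagules were set on topsoil compacted to 0.95 to 1.27 cm below the pan rim, then covered with soil thoroughly mixed with a known amount of test compound in acetone or water carrier. Ratings follow a scale of percent inhibition per species.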

Barnyardgrass = conditions: Echinochloa crus-galli, pre-emergence, Bygr, 11.2 kg/ha, 10-14 days, read-out: herbicidal rating (% inhibition)
Procedure, shortened: as §1

Cocklebur = conditions: Xanthium strumarium, pre-emergence, Cobu, 11.2 kg/ha, 10-14 days, read-out: herbicidal rating (% inhibition)
Procedure, shortened: as §1

Yellow Nutsedge = conditions: Cyperus, pre-emergence, Yens, 11.2 kg/ha, 10-14 days, read-out: herbicidal rating (% inhibition)
Procedure, shortened: as §1

Morningglory = conditions: Ipomoea, pre-emergence, Mogl, 11.2 kg/ha, 10-14 days, read-out: herbicidal rating (% inhibition)
Procedure, shortened: as §1

Downy Brome = conditions: Bromus tectorum, pre-emergence, Dobr, 11.2 kg/ha, 10-14 days, read-out: herbicidal rating (% inhibition)
Procedure, shortened: as §1

Annual Bluegrass = conditions: pre-emergence, Anbg, 11.2 kg/ha, 10-14 days, read-out: herbicidal rating (% inhibition)
Method: (§2) Tables A and B summarize results of tests conducted to determine the pre-emergent herbicidal activity of the compounds of this invention. The herbicidal ratings used in Tables A and B were assigned according to a scale based on the percent inhibition of each plant species. The herbicide rating symbols in Tables A and B are defined as follows: […]
(§3) One set of pre-emergent tests was conducted as follows:
(§4) Topsoil was placed in a pan and compacted to a depth of 0.95 to 1.27 cm. from the top of the pan. A predetermined number of seeds of each of several monocotyledonous and dicotyledonous annual plant species and/or vegetative propagules of various perennial plant species were placed on top of the soil. The soil required to level fill a pan after seeding or adding vegetative propagules was weighed into another pan. A known amount of the test compound dissolved or suspended in an organic solvent or water and applied in acetone or water as a carrier was thoroughly mixed with this cover soil, and the herbicide/soil mixture was used as a cover layer for the previously prepared pan. In Table A below the amounts of active ingredient were all equivalent to an application rate of 11.2 kilograms/hectare (kg/ha). After treatment, the pans were moved to a greenhouse bench where they were watered as needed to give adequate moisture for germination and growth.
(§5) Approximately 10-14 days (usually 11 days) after planting and treating, the plants were observed and the results recorded.
(§6) The plant species usually regarded as weeds which were utilized in one set of pre-emergent activity tests, the data for which are shown in Table A, are identified by letter headings printed diagonally above the columns according to the following legend: […]

Seedling Johnsongrass = conditions: Sorghum halepense, pre-emergence, Sejg, 11.2 kg/ha, 10-14 days, read-out: herbicidal rating (% inhibition)
Method: as §2, §3, §4, §5, §6

Indian Mustard = conditions: Brassica juncea, pre-emergence, Inmu, 11.2 kg/ha, 10-14 days, read-out: herbicidal rating (% inhibition)
Method: as §2, §3, §4, §5, §6

Wild Buckwheat = conditions: Fallopia convolvulus, pre-emergence, Wibw, 11.2 kg/ha, 10-14 days, read-out: herbicidal rating (% inhibition)
Method: as §2, §3, §4, §5, §6

Row | Compound | inhibition at 11200 g/ha (Velvetleaf) [%] | inhibition at 11200 g/ha (Barnyardgrass) [%] | inhibition at 11200 g/ha (Cocklebur) [%] | inhibition at 11200 g/ha (Yellow Nutsedge) [%] | inhibition at 11200 g/ha (Morningglory) [%] | inhibition at 11200 g/ha (Downy Brome) [%] | inhibition at 11200 g/ha (Annual Bluegrass) [%] | inhibition at 11200 g/ha (Seedling Johnsongrass) [%] | inhibition at 11200 g/ha (Indian Mustard) [%] | inhibition at 11200 g/ha (Wild Buckwheat) [%]
1 | COc1nc(C(F)(F)F)c(C2OCCCO2)c(CC(C)C)c1C(=O)SC [Compound 136, 3-pyridinecarbothioic acid, 5-(1,3-dioxan-2-yl)-2-methoxy-4-(2-methylpropyl)-6-(trifluoromethyl)-, S-methyl ester] | 50 to 74 | 75 to 100 | 50 to 74 | 25 to 49 | 50 to 74 | 75 to 100 | 75 to 100 | 75 to 100 | 75 to 100 | 75 to 100
2 | COC(=O)c1c(OC)nc(C(F)(F)F)c(C2OCC[S+]2[O-])c1CC(C)C (stereo not drawn) [Compound 126, 3-pyridinecarboxylic acid, 2-methoxy-4-(2-methylpropyl)-5-(1,3-oxathiolan-2-yl)-6-(trifluoromethyl)-, methyl ester, S-oxide] | 75 to 100 | 75 to 100 | 25 to 49 | 0 to 24 | 75 to 100 | 75 to 100 | 75 to 100 | 75 to 100 | 75 to 100 | 75 to 100
3 | COC(=O)c1c(OC)nc(C(F)(F)F)c(C#N)c1CC(C)C [Compound 106, 3-pyridinecarboxylic acid, 5-cyano-2-methoxy-4-(2-methylpropyl)-6-(trifluoromethyl)-, methyl ester] | 0 to 24 | 75 to 100 | 0 to 24 | 0 to 24 | 50 to 74 | 75 to 100 | 75 to 100 | 0 to 24 | 75 to 100 | 75 to 100
4 | COC(=O)c1c(OC)nc(C(F)(F)F)c(-c2nnco2)c1CC(C)C [Compound 125, 3-pyridinecarboxylic acid, 2-methoxy-4-(2-methylpropyl)-5-(1,3,4-oxadiazo1-2-yl)-6-(trifluoromethyl)-, methyl ester] | 75 to 100 | 75 to 100 | 0 to 24 | 0 to 24 | 75 to 100 | 75 to 100 | 75 to 100 | 75 to 100 | 75 to 100 | 75 to 100
5 | COC(=O)c1c(OC)nc(C(F)(F)F)c(C(=O)OCC(F)(F)F)c1CC(C)C [Compound 112, 3,5-pyridinedicarboxylic acid, 2-methoxy-4-(2-methylpropyl)-6-(trifluoromethyl)-, 3-methyl 5-(2,2,2-trifluoroethyl) ester] | 75 to 100 | 75 to 100 | 0 to 24 | 0 to 24 | 50 to 74 | 75 to 100 | 75 to 100 | 75 to 100 | 75 to 100 | 75 to 100
6 | COC(=O)c1c(OC)nc(C(F)(F)F)c(C(N)=O)c1CC(C)C [Compound 105, 3-pyridinecarboxylic acid, 5-(aminocarbonyl)-2-methoxy-4-(2-methylpropyl)-6-(trifluoromethyl)-, methyl ester] | 0 to 24 | 75 to 100 | 0 to 24 | 0 to 24 | 0 to 24 | 0 to 24 | 75 to 100 | 75 to 100 | 0 to 24 | 25 to 49

Reference: US5391540A, “Substituted pyridine compounds” (Rohm and Haas Company, priority 1993, dated 1995)
